Calls of active or inactive are those of the source.
Key:
[1] = target: T1, Protein skinhead-1 (Caenorhabditis elegans, UniProt P34707); assay type: functional
T1 sequence (P34707 whole entry): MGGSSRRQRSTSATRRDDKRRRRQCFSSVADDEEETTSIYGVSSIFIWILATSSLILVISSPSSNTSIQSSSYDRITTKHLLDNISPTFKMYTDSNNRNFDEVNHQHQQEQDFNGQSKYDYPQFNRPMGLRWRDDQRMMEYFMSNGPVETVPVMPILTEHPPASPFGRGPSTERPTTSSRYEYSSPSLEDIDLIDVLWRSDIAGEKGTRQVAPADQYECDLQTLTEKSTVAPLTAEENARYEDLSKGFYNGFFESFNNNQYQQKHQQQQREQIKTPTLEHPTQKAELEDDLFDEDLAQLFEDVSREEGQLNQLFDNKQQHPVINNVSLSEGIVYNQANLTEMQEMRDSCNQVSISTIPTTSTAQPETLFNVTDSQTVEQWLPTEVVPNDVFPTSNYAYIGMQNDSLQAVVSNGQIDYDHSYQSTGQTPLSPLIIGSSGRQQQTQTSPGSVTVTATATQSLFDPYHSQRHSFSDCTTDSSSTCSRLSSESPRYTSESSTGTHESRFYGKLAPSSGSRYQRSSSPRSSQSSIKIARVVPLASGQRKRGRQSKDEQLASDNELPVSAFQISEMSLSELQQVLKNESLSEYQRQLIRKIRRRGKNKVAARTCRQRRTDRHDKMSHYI

[2] = cells
[3] = target: T2, Oxysterols receptor LXR-beta (Homo sapiens, UniProt P55055); assay type: functional, cell-based;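 further: Cell-based luminescence dose-response assay of agonist activity at LXR, run as a confirmatory counterscreen to a daf-12 agonist screen; HEK293 cells with Gal4-LXR fusion and GAL4-driven luciferase reporter; agonist potency from rising luciferase signal of a Gal4-LXR reporter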
T2 sequence (P55055 whole entry): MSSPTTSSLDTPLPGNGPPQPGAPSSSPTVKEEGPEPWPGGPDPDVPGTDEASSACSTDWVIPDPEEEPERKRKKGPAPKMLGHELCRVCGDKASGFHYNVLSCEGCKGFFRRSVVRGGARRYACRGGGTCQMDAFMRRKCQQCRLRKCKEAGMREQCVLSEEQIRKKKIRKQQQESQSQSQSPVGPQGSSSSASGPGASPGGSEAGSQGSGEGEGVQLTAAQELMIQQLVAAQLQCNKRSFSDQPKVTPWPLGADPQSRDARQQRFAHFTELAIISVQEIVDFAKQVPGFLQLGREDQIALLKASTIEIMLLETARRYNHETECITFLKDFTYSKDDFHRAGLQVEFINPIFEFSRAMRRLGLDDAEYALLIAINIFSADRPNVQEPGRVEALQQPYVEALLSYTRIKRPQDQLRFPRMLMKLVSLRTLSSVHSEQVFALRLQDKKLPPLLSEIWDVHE

[4] = inhibitors of non-replicating M. tuberculosis, dose response, luciferase, dry powder (AID 651620); assay type: functional; details: Mycobacterium tuberculosis
[5] = inhibitors of non-replicating M. tuberculosis, dose response, luciferase, dry powder (AID 651619); assay type: functional; details: Mycobacterium tuberculosis
[6] = target: NAD-dependent protein deacylase sirtuin-5, mitochondrial (Homo sapiens, UniProt Q9NXA8); assay: SIRT5 deacylase inhibitors, dose response, biochemical, fluorescence imaging, cherry-pick, set 6 (AID 720597)
[7] = inhibitors of LMP1-driven NF-kB reporter, dose response, cell-based, EBV LMP1, luciferase, dry powder, set 2 (AID 624361); assay type: functional

Sequence of NAD-dependent protein deacylase sirtuin-5, mitochondrial (Q9NXA8 whole entry): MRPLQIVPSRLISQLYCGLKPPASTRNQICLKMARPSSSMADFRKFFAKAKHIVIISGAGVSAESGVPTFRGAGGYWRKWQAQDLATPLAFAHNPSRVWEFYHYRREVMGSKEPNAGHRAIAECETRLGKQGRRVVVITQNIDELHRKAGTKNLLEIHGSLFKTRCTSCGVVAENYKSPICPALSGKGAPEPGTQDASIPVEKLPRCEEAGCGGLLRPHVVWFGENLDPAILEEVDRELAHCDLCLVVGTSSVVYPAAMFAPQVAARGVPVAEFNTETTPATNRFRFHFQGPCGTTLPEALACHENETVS

## Fc1ccc(-c2nnc(-c3ccc4ccccc4c3)o2)cc1
[1]
  IC50: > 100 µM (inactive)
[2]
  EC50: > 67.5 µM (inactive)
[3]
  EC50: > 67.5 µM (inactive)

## [O-][n+]1ccccc1CSc1nnc(-c2ccccc2)o1
[4]
  IC90: 31 µM (active)
[5]
  IC90: 31 µM (active)

## Cc1noc(C)c1S(=O)(=O)Nc1ccc2c(c1)C(=O)N([C@H](C)CO)C[C@@H](C)[C@H](CN(C)Cc1ccc(C(F)(F)F)cc1)OCCCC[C@@H](C)O2
[6]
  AC50: > 30 µM (inactive)
[7]
  AbsAC35: 39.54 µM
